Assay results taken from US20040176361A1, “Fused heterocyclic compound and medicinal use thereof” (priority 2001, published 2004).
Counter-ions that a name gives are not always drawn. Like-named read-outs stand apart in the source and are kept apart here.

Assays:
Recombinant human PARP = Recombinant human PARP (Homo sapiens, UniProt P09874); assay: PARP enzyme activity inhibitory action; details: for IC50: 3H-NAD, activated DNA, 25° C. 15 min
Experimental: After incubation at 25° C. for 15 min., the reaction was quenched with 20% trichloroacetic acid, and the resulting acid insoluble fraction was adsorbed on a GF/B filter. The filter was washed several times with 5% trichloroacetic acid, and the radiation dose on the filter was measured by liquid scintillation counter.

P388D1 cells = assay: Hydrogen peroxide (H2O2) induced cytotoxicity suppressive action; assay type: cell-based; details: H2O2 (2 mM), 4 hr, LDH activity, read-out: Cell death suppressive action IC50
Experimental: P388D1 cells cultured to confluence in a 25 cm^2 flask were sown in 96-well plate at a density of […]. The test compound was added, and the cells were incubated for 15 min (37° C.), after which H2O2 (2 mM) was added, and the cells were incubated for 4 hr. After the completion of the incubation, the culture supernatant was recovered, and the LDH activity, which is an index of cytotoxicity, was measured using an LDH-cytotoxicity test kit (Wako Pure Chemical Industries, Ltd.).

[1] = Stability test in 0.1 mol/L aqueous citric acid solution (HPLC residual ratio); assay type: physicochemical; details: 5 mg in 1 ml 0.1 mol/L aqueous citric acid, room temperature
Experimental: Each test compound (5 mg) was dissolved in 0.1 mol/L aqueous citric acid solution (1 ml), and the residual ratio of each compound was measured by HPLC under shading or no shading at room temperature one day and 8 days later. The residual ratio was calculated by comparing the area of HPLC immediately after dissolution of each compound with the area of HPLC one day or 8 days later.
column CAPCELPAK UG120 (C18)(Shiseido Co., Ltd.)
mobile phase 50 mmol/L aqueous sodium perchlorate solution (pH
detection wavelength 254 nm

adrenalin α1 receptor = assay: Affinity for adrenalin α1 receptor; 3H-prazosin binding; details: rat brain crude synapse membrane, 25° C. 30 min
Experimental: Preparation of crude synapse membrane and binding experiment were performed according to European Journal of Pharmacology, vol. 55, page 323 (1979). Crude synapse membranes were prepared from cryopreserved rat brain tissues, and a membrane sample and 3H-prazosin were incubated in the presence of a test compound at 25° C. for 30 min. […] The amount of non-specific binding was determined in the presence of 1 μM prazosin. The 50% suppression concentration (IC50) of the test compound was calculated from nonlinear regression, and the inhibition constant (Ki value) was determined.

[2] = PARP inhibitory activity IC50 (nM), average of 2 measurements
[3] = PARP inhibitory activity IC50 (nM), average of 3 measurements

Recombinant human PARP, sequence (P09874 whole entry): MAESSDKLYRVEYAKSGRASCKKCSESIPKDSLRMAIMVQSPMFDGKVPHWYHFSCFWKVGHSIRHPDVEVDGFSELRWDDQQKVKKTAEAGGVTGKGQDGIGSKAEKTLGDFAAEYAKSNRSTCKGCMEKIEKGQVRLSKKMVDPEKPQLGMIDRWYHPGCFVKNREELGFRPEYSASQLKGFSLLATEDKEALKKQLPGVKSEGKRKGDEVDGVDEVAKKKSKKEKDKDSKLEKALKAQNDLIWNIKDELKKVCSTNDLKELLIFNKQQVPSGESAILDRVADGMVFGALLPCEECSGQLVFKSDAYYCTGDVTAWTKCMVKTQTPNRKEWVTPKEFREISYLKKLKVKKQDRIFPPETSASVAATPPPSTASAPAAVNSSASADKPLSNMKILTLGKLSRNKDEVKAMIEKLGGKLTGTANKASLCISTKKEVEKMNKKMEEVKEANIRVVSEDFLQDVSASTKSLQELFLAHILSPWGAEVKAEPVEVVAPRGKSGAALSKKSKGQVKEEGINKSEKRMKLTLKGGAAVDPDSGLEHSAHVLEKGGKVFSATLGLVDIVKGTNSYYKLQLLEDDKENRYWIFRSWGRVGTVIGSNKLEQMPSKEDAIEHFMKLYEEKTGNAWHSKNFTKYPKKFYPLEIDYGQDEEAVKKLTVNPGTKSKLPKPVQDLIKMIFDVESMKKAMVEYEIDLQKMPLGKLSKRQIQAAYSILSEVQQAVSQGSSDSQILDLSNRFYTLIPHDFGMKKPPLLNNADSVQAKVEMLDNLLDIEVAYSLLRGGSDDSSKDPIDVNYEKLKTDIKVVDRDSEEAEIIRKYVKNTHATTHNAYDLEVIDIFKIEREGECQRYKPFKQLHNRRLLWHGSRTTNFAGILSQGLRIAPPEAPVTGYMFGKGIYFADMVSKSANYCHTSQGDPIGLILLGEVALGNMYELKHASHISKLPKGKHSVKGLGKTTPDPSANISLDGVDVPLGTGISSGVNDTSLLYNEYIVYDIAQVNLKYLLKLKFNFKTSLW

Structure (SMILES) | IC50 (Recombinant human PARP; [3]) | IC50 (P388D1 cells; Mus musculus) | other results
O=C1NCCc2c(OCCCCN3CCCCC3)cccc21 [DPQ, 3,4-dihydro-5-[4-(1-piperidinyl)-butoxy]-1(2H)-isoquinoline, reference compound] | – | – | IC50 (Recombinant human PARP; read-out: PARP inhibitory activity IC50, average of 3 measurements): 1000 nM; IC50 (P388D1 cells): 3300 nM
Cc1cccc2c(=O)[nH]c(N3CCN(C)CC3)cc12 [Example 1, 5-methyl-3-(4-methylpiperazin-1-yl)-2H-isoquinolin-1-one] | 38 nM | 120 nM | IC50 (Recombinant human PARP; [2]): 42 nM
Cc1cccc2c(=O)[nH]c(N3CCC(N(C)C)CC3)cc12 [Example 12, 5-methyl-3-(4-dimethylaminopiperidin-1-yl)-2H-isoquinolin-1-one] | 37 nM | 110 nM | IC50 (Recombinant human PARP; [2]): 34 nM
CN1CCC(c2cc3ccccc3c(=O)[nH]2)CC1 [Example 82, 3-(1-methylpiperidin-4-yl)-2H-isoquinolin-1-one ⅕ water adduct] | 34 nM | 190 nM | residual ratio (%) under shading 1 day later [1]: ≈100%; residual ratio (%) under shading 8 days later [1]: ≈100%; residual ratio (%) without shading 1 day later [1]: ≈100%; residual ratio (%) without shading 8 days later [1]: ≈100%
Cc1cccc2c(=O)[nH]c(CCCN(C)C)cc12 [Example 90, 3-(3-(dimethylamino)propyl)-5-methyl-2H-isoquinolin-1-one] | 26 nM | 140 nM | –
CN1CCC(c2cc3c(O)cccc3c(=O)[nH]2)CC1 [Example 108, 5-hydroxy-3-(1-methylpiperidin-4-yl)-2H-isoquinolin-1-one] | 12 nM | 124 nM | residual ratio (%) under shading 1 day later [1]: ≈100%; residual ratio (%) under shading 8 days later [1]: ≈100%; residual ratio (%) without shading 1 day later [1]: ≈100%; residual ratio (%) without shading 8 days later [1]: ≈100%
Cc1cccc2c(=O)[nH]c(C3CCN(C)CC3)nc12 [Example 121, 2-(1-methylpiperidin-4-yl)-8-methyl-3H-quinazolin-4-one] | 37 nM | 240 nM | residual ratio (%) under shading 1 day later [1]: ≈100%; residual ratio (%) under shading 8 days later [1]: ≈100%
CN1CCN(c2cc3ccccc3c(=O)[nH]2)C[C@H]1CO [Example 156, (S)-3-(3-hydroxymethyl-4-methylpiperazin-1-yl)-2H-isoquinolin-1-one] | 35 nM | 230 nM | Ki (adrenalin α1 receptor): > 100000 nM
Cc1cccc2c(=O)[nH]c(C3CCN(C)CC3)cc12 [Example 178, 5-methyl-3-(1-methylpiperidin-4-yl)-2H-isoquinolin-1-one] | 23 nM | 90 nM | –
CN1CCC(c2cc3c(N)cccc3c(=O)[nH]2)CC1 [Example 181, 5-amino-3-(1-methylpiperidin-4-yl)-2H-isoquinolin-1-one] | 22 nM | 220 nM | –
CN(C)CCCc1cc2c(O)cccc2c(=O)[nH]1 [Example 186, 5-hydroxy-3-(3-dimethylaminopropyl)-2H-isoquinolin-1-one hydrochloride] | 14 nM | 130 nM | –
O=c1[nH]c(CCN2CCCCC2)cc2c(O)cccc12 [Example 189, 5-hydroxy-3-(2-(piperidin-1-yl)ethyl)-2H-isoquinolin-1-one] | 17 nM | 85 nM | –
Cc1cccc2c(=O)[nH]c(N3CCN(C)[C@H](CO)C3)cc12 [Example 212, (S)-3-(3-hydroxymethyl-4-methylpiperazin-1-yl)-5-methyl-2H-isoquinolin-1-one] | 23 nM | 70 nM | Ki (adrenalin α1 receptor): > 100000 nM
O=c1[nH]c(CCCN2CCCC2)cc2c(O)cccc12 [Example 217, 5-hydroxy-3-(3-(pyrrolidin-1-yl)propyl)-2H-isoquinolin-1-one] | 28 nM | – | melting point: 222 to 225 °C
CN1CCN(c2cc3ccccc3c(=O)[nH]2)CC1 [Example Y-3011, reference compound] | 50 nM | – | residual ratio (%) under shading 1 day later [1]: 76%; residual ratio (%) under shading 8 days later [1]: 32%; PARP inhibitory activity (in words) (Recombinant human PARP; comparison drawn from Table 1): most superior PARP inhibitory activity; Ki (adrenalin α1 receptor): 4000 nM
